Experimental data taken from patent US20230114241A1, “METHODS OF TREATING EPILEPSY USING THE SAME” (Trevena, Inc., priority 2019, published 2023).
pEC50: −log10 of the molar value.

Key:
[1] = biological target: T1, human sphingosine-1-phosphate receptor 1 (S1P1) (Homo sapiens, UniProt P21453); assay: β-Arrestin2 recruitment assay (PathHunter), S1P1 CHO-K1 cells; assay type: cell-based; conditions: for EC50: β-arrestin2 recruitment, read-out: hS1P1 B-arrestin2 pEC50 (converted)
How it was run: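 CHO-K1 cells co-expressing EA-β-arrestin2 and ProLink-tagged human S1P1 plated overnight, then stimulated 60 min at 37 °C. Enzyme-fragment complementation (β-galactosidase) detected after 1 h at room temperature by luminescence; values normalized to fingolimod.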
Target sequence in this assay (P21453 whole entry, the tested form may be a part): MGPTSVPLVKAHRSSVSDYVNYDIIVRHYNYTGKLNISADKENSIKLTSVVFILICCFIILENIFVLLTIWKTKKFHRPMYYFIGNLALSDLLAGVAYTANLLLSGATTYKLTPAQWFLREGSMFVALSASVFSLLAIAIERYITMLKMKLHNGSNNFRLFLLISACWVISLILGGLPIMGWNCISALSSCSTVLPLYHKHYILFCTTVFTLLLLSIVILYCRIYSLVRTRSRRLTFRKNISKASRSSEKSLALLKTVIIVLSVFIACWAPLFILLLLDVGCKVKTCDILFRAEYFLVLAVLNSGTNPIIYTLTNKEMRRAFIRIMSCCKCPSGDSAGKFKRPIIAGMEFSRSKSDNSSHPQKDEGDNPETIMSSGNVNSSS
Target sequence in this assay (P32121 whole entry partner, the tested form may be a part): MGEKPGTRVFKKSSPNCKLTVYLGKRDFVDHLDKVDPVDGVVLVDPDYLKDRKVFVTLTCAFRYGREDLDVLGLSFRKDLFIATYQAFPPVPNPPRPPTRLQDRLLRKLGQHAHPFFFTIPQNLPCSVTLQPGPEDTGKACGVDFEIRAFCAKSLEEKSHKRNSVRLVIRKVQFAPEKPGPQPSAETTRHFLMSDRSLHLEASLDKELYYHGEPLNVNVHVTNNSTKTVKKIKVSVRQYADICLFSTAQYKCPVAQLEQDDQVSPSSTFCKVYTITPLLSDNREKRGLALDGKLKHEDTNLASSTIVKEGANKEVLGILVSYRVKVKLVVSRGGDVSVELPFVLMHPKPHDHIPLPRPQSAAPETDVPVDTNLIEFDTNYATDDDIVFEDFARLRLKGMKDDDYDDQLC

[2] = biological target: T1, human sphingosine-1-phosphate receptor 1 (S1P1); assay: Inhibition of cAMP production (HTRF cAMP HiRange), S1P1 CHO-K1 cells; assay type: cell-based; conditions: for EC50: read-out: hS1P1 CAMP pEC50 (converted)
How it was run: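 CHO-K1 cells co-expressing human S1P1 (C-terminal ProLink tag) and EA-β-arrestin2, plated overnight; after 30 min compound incubation at 37 °C, intracellular cAMP measured by HTRF TR-FRET following 1 h at room temperature. Values normalized to fingolimod.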
Target sequence in this assay (P21453 whole entry, the tested form may be a part): as the sequence (P21453 whole entry, the tested form may be a part) above

[3] = CHO-K1, efficacy normalized to maximum efficacy of fingolimod, read-out: hS1P1 B-arrestin2 SPAN
[4] = CHO-K1, efficacy normalized to maximum efficacy of fingolimod, read-out: hS1P1 CAMP SPAN
[5] = inhibition of cAMP production, S1P1
[6] = CHO-K1, β-arrestin2 recruitment, efficacy normalized to maximum efficacy of fingolimod, read-out: hS1P1 B-arrestin2 SPAN
[7] = CHO-K1, inhibition of cAMP production, efficacy normalized to maximum efficacy of fingolimod, read-out: hS1P1 CAMP SPAN
[8] = inhibition of cAMP production, potency

Compound	Emax [1, 3] [%]	EC50 ([1]; S1P1) [µM]	Emax [2, 4] [%]	EC50 [2, 5] [µM]	Emax [1, 6] [%]	EC50 ([1]; potency) [µM]	Emax [2, 7] [%]	EC50 [2, 8] [µM]	other results
CC(C)Cn1nnc2cc(-c3nc(-c4ccccc4Cl)no3)ccc21 [Compound 289, 5-[3-(2-chlorophenyl)-1,2,4-oxadiazol-5-yl]-1-(2-methylpropyl)-1H-1,2,3-benzotriazole]	–	–	–	–	< 75	> 10	< 75	> 0.316	–
FC(F)(F)Oc1cccc(-c2nc(-c3ccc4c(c3)nnn4C3CCCC3)no2)c1 [Compound 10, 3-(1-cyclopentyl-1H-benzo[d][1,2,3]triazol-5-yl)-5-(3-(trifluoro-methoxy)phenyl)-1,2,4-oxadiazole]	–	–	–	–	–	–	–	–	pEC50 [1]: < 5.00; Emax ([1]; CHO-K1, read-out: hS1P1 B-arrestin2 SPAN): < 75%; pEC50 [2]: < 6.50; Emax ([2]; CHO-K1, read-out: hS1P1 CAMP SPAN): < 75%
C=CCn1nc2ccc(-c3nc(-c4ccccc4)no3)cc2n1 [Compound 39, 5-(3-phenyl-1,2,4-oxadiazol-5-yl)-2-(prop-2-en-1-yl)-2H-1,2,3-benzotriazole]	–	–	–	–	< 75	> 10	< 75	> 0.316	–
Cc1ccccc1-c1noc(-c2ccc3c(c2)nnn3C2CCC2)n1 [Compound 306, 1-cyclobutyl-5-[3-(2-methylphenyl)-1,2,4-oxadiazol-5-yl]-1H-1,2,3-benzotriazole]	–	–	–	–	< 75	< 10	> 75	< 0.316	–
CC(C)n1nnc2cc(-c3nc(-c4ccccc4F)co3)ccc21 [Compound 21, 5-[4-(2-fluorophenyl)-1,3-oxazol-2-yl]-1-(propan-2-yl)-1H-1,2,3-benzotriazole]	–	–	–	–	> 75	> 10	> 75	> 0.316	–
CC(C)n1nnc2cc(-c3nc(-c4ccc(COc5ccccc5)cc4)no3)ccc21 [Compound 49, 5-{3-[4-(phenoxy-methyl)phenyl]-1,2,4-oxadiazol-5-yl}-1-(propan-2-yl)-1H-1,2,3-benzotriazole]	–	–	–	–	< 75	> 10	< 75	> 0.316	–
CC(C)n1nnc2cc(-c3noc(-c4ccccc4N(C)C)n3)ccc21 [Compound 615, N,N-dimethy1-2-{3-[1-(propan-2-yl)-1H-1,2,3-benzotriazol-5-yl]-1,2,4-oxadiazol-5-yl}aniline]	> 75	< 10	> 75	< 0.316	–	–	–	–	–
CC(C)n1ccc2cc(-c3nc(-c4cccc5c4OCCC5)no3)ccc21 [Compound 327, 3-chroman-8-yl-5-(1-isopropylindol-5-yl)-1,2,4-oxadiazole]	–	–	–	–	> 75	< 10	< 75	> 0.316	–
Cn1ccnc1-c1noc(-c2ccc3c(c2)nnn3CC(C)(C)O)n1 [Compound 567, 2-methyl-1-(5-[3-(1-methyl-1H-imidazol-2-yl)-1,2,4-oxadiazol-5-yl]-1H-1,2,3-benzotriazol-1-yl}propan-2-ol]	< 75	> 10	> 75	> 0.316	–	–	–	–	–
CC(C)Oc1ccc(-c2noc(-c3ccc4c(c3)nnn4C(C)C)n2)cc1C(F)(F)F [Compound 20, 3-(4-isopropoxy-3-(trifluoromethyl)phenyl)-5-(1-isopropyl-1H-benzo[d][1,2,3]triazol-5-yl)-1,2,4-oxadiazole]	–	–	–	–	> 75	< 10	> 75	< 0.316	–
Cc1cccc2nc(-c3ccc4c(c3)nnn4CC(C)C)oc12 [Compound 449, 2-(1-isobutyl-1H-benzo[d][1,2,3]triazol-5-yl)-7-methyl-benzo[d]oxazole]	> 75	> 10	> 75	> 0.316	–	–	–	–	–
Cc1ccncc1-c1noc(-c2cnc3c(c2)nnn3C(C)C)n1 [Compound 414, 4-methyl-3-{5-[3-(propan-2-yl)-3H-[1,2,3]triazolo[4,5-b]pyridin-6-yl]-1,2,4-oxadiazol-3-yl}pyridine]	> 75	> 10	< 75	< 0.316	–	–	–	–	–
CCCn1nnc2cc(-c3nc(-c4cccc(C)c4)no3)ccc21 [Compound 54, 5-[3-(3-methylphenyl)-1,2,4-oxadiazol-5-yl]-1-propyl-1H-1,2,3-benzotriazole]	–	–	–	–	> 75	> 10	< 75	> 0.316	–
N#Cc1cc(-c2nc(-c3ccc4c(c3)NC(=O)CC4)no2)ccc1NCC1CC1 [Compound 471, 2-((cyclopropyl-methyl)amino)-5-(3-(2-oxo-1,2,3,4-tetrahydroquinolin-7-yl)-1,2,4-oxadiazol-5-yl)benzonitrile]	> 75	< 10	> 75	< 0.316	–	–	–	–	–

Second part, led by results:

Emax [1, 3] [%]	EC50 ([1]; S1P1) [µM]	Emax [2, 4] [%]	EC50 [2, 5] [µM]	Emax [1, 6] [%]	EC50 ([1]; potency) [µM]	Emax [2, 7] [%]	EC50 [2, 8] [µM]	Compound	other results
> 75	> 10	> 75	< 0.316	–	–	–	–	CCC1(CC)CC(=O)c2cc(-c3nc(-c4cc[nH]c4)no3)ccc2O1 [Compound 485, 6-(3-(1H-pyrrol-3-yl)-1,2,4-oxadiazol-5-yl)-2,2-diethylchroman-4-one]	–
–	–	–	–	< 75	> 10	> 75	> 0.316	COc1cccc(-c2nc(-c3ccc4[nH]ccc4c3)ns2)c1 [Compound 364, 5-[5-(3-methoxyphenyl)-1,2,4-thiadiazol-3-yl]-1H-indole]	–
> 75	> 10	< 75	> 0.316	–	–	–	–	CCC1(CC)CC(=O)c2cc(-c3ncc(-c4cccnc4)cn3)ccc2O1 [Compound 509, 2,2-diethyl-6-(5-(pyridin-3-yl)pyrimidin-2-yl)chroman-4-one]	–
> 75	< 10	> 75	< 0.316	–	–	–	–	CCC1(CC)CC(=O)c2cc(-c3nc(-c4ccco4)no3)ccc2O1 [Compound 465, 2,2-diethyl-6-(3-(furan-2-yl)-1,2,4-oxadiazol-5-yl)chroman-4-one]	–
> 75	< 10	> 75	< 0.316	–	–	–	–	CCC1(CC)CC(=O)c2cc(-c3nc(-c4ccsc4)no3)ccc2O1 [Compound 468, 2,2-diethyl-6-(3-(thiophen-3-yl)-1,2,4-oxadiazol-5-yl)chroman-4-one]	–
–	–	–	–	< 75	> 10	> 75	> 0.316	CCC1(CC)CC(=O)c2cc(-c3nc(-c4ccccc4OC)ns3)ccc2O1 [Compound 257, 2,2-diethyl-6-(3-(2-methoxyphenyl)-1,2,4-thiadiazol-5-yl)chroman-4-one]	–
< 75	< 10	> 75	< 0.316	–	–	–	–	CCC1(CC)CC(=O)c2cc(-c3nc(-c4cncc(F)c4)no3)ccc2O1 [Compound 551, 2,2-diethyl-6-(3-(5-fluoropyridin-3-yl)-1,2,4-oxadiazol-5-yl)chroman-4-one]	–
> 75	< 10	> 75	< 0.316	–	–	–	–	CCC1(CC)CC(=O)c2cc(-c3nc(-c4sccc4OC)no3)ccc2O1 [Compound 604, 2,2-diethyl-6-(3-(3-methoxythiophen-2-yl)-1,2,4-oxadiazol-5-yl)chroman-4-one]	–
> 75	< 10	> 75	< 0.316	–	–	–	–	CCC1(CC)CC(=O)c2cc(-c3nc(-c4cccs4)no3)ccc2O1 [Compound 467, 2,2-diethyl-6-(3-(thiophen-2-yl)-1,2,4-oxadiazol-5-yl)chroman-4-one]	–
